Reference: publication PMC10610134, “Verubulin (Azixa) Analogues with Increased Saturation: Synthesis, SAR and Encapsulation in Biocompatible Nanocontainers Based on Ca^2+ or Mg^2+ Cross-Linked Alginate” (Pharmaceuticals, 2023)
Entries after “also recorded” stand apart in the source; their conditions may differ.

Tests used:
[1] = test system: microtubules in carcinoma A549 cells; assay: Immunofluorescent microscopy of microtubules; type: cell-based, human
Procedure: Since verubulin is known to stimulate microtubule disassociation, we performed an immunofluorescent microscopy study to determine the response of microtubule dynamics in carcinoma A549 cells to the treatment with representative compounds 2b,c,e. […] Aberrant cell morphology—contraction and rounding (Figure 2A,B) or contraction and elongation (Figure 2C)—was also observed.
A549 cells were seeded on coverslips (treated with poly-l-lysine at a concentration of 33 mg/L for an hour). Compounds were added up to the corresponding concentration after 24 h attachment and growth of the cells. Then, cells were incubated 24 h.
The cells were fixed with methanol (precooled in liquid nitrogen for 20 min), no additional permeabilization was performed. To prevent non-specific binding, cells were incubated with 4% BSA in PBS for one hour. Then, a solution of mouse monoclonal antibodies against alpha-tubulin cross-linked with Alexa 488 fluoroform (Thermo Fisher Scientific, Waltham, MA, USA, 32-2588) at a concentration of 5 μg/mL in 1% BSA solution in PBS was added to the cells, and the slides were incubated at +5 °C in a water chamber for 24 h. After the end of the incubation time, the cells were washed several times with PBS buffer solution and fixed on a glass slide with Moviol. Next day, cells were imaged with a ZEISS LSM 900 (ZEISS Microscopy, GmbH, Germany) and images processed with ImageJ.

[2] = test system: human breast cancer cell line MCF7′; assay: MTT cytotoxicity assay, MCF7′; type: cell-based; conditions: MCF7, 64 h treatment, MTT, read-out: IC50, nM MCF7′
From the text: (§1) The obtained series of verubulin analogues 2a–r (which also included three by-products isolated in the reactions according to Scheme 2) were initially evaluated for cytotoxicity against commonly used human breast cancer cell line MCF7′ (fast-growth subclone), human lung epithelial carcinoma cell line A549 and etiologically non-cancer immortalized lung fibroblast cell line VA13 (WI38 subline 2RA). Cytotoxicity against immortalized human embryonic kidney cell line HEK293T, characterized by a high growth rate, was also studied regarding cytotoxicity against non-cancerous fast-growth cells. A standard MTT assay was performed; verubulin (1) served as a positive reference. The data obtained are presented in Table 1 (for dose–response curves, see Supplementary Materials).
(§2) Human breast cancer cell line MCF7′ and human lung adenocarcinoma cell line A549 were kindly provided by Dr. S. Dmitriev (Lomonosov Moscow State University), immortalized human fibroblast cell line VA13 (WI38 subline 2RA) was kindly provided by Dr. M. Rubtsova (Lomonosov Moscow State University), human embryonic kidney HEK293T cell line was kindly provided by Dr. E. Knyazhanskaya (Lomonosov Moscow State University). MCF7′, VA13, A549 and HEK293T cell lines were maintained in DMEM/F-12 (Thermo Fisher Scientific, Waltham, MA, USA) culture medium containing 10% fetal bovine serum (Thermo Fisher Scientific, Waltham, MA, USA) and 50 μg/mL penicillin and 0.05 mg/mL streptomycin at 37 °C (Thermo Fisher Scientific, Waltham, MA, USA) in 5% CO2. Cells were maintained at 37 °C in a humidified MCO-18AC incubator (Sanyo, Tokyo, Japan) supplied with 5% CO2. Cell cultures were tested for the absence of mycoplasma and validated by STR.
(§3) The cytotoxicity of the substances was tested using the 3-(4,5-dimethylthiazol-2-yl)2,5-diphenyl tetrazolium bromide (MTT) assay with some modifications. A total of 2500 cells per well for the MCF7′, HEK293T, A549 cell lines or 4000 cells per well for the VA-13 cell line were plated out in 135 μL of DMEM-F12 media (Gibco, Thermo Fisher Scientific, Waltham, MA, USA) in a 96-well plate and incubated in the 5% CO2 incubator for the first 20 h without treatment. Then, 15.8 μL of media–DMSO solutions of tested substances (final DMSO concentrations in the media were 0.5% or less) was added to the cells (triplicate each) and cells were treated for 64 h with 0.023 mg/L–50 mg/L (eight dilutions) of compounds 2f,n,o,r; 1.14 μg/L–2.5 mg/L (eight dilutions) of compounds 2a,b,d,g,h,k,l,p,q; 57.2 ng/L–125 μg/L (eight dilutions) of compounds 2e,i,j; 22.9 ng/L–50 μg/L (eight dilutions) of compounds 1,2c,m. Doxorubicin was used as a control substance. Then, the MTT reagent (Paneco LLC, Moscow, Russia) was added to cells up to a final concentration of 0.5 g/L (10 × stock solution in PBS was used) and incubated for 2 h at 37 °C in the incubator, under an atmosphere of 5% CO2. Then, the MTT solution was discarded, and 140 μL of DMSO (PharmaMed LLC, Moscow, Russia) was added. The plates were swayed on a shaker (120 rpm) to dissolve the formazan. The absorbance was measured using a microplate reader (VICTOR X5 Light Plate Reader, PerkinElmer, Waltham, MA, USA) at a wavelength of 555 nm (in order to measure formazan concentration). The results were used to construct dose–response graphs and to estimate IC50 values (IC50 is the concentration resulting in half of the maximal cytotoxic effect) with GraphPad Prism V, GraphPadSoftware, Inc., San Diego, CA, USA.

[3] = test system: human lung epithelial carcinoma cell line A549; assay: MTT cytotoxicity assay, A549; type: cell-based; conditions: A549, 64 h treatment, MTT, read-out: IC50, nM A549
From the text: as §1, §2, §3

[4] = test system: immortalized lung fibroblast cell line VA13 (WI38 subline 2RA); assay: MTT cytotoxicity assay, VA13; type: cell-based; conditions: Homo sapiens, VA-13; 64 h treatment, MTT; read-out: IC50, nM VA13
From the text: as §1, §2, §3

[5] = test system: immortalized human embryonic kidney cell line HEK293T; assay: MTT cytotoxicity assay, HEK293T; type: cell-based; conditions: HEK-293T, 64 h treatment, MTT, read-out: IC50, nM HEK293T
From the text: as §1, §2, §3

[6] = test system: MCF7′, A549, VA13, HEK293T cell lines; assay: MTT cytotoxicity, SAR statements over the cell line panel; type: cell-based, human; conditions: for reduction of cytotoxicity on removal of para-methoxy substituent: 2a vs. 2c, 2g vs. 2i; for cytotoxicity, in words: MTT, 64 h
From the text: as §1, §3

Row | melting point | SMILES | effect on microtubules (MTs) ([1]; 0.03 μM, A549, positive control) | IC50 [2] | IC50 [3] | IC50 [4] | IC50 [5] | reduction of cytotoxicity on removal of para-methoxy substituent [6] | effect on microtubules (MTs) ([1]; 100 μM (very high concentration), 24 h, A549) | effect on microtubules (MTs) ([1]; 10 μM, 24 h, A549) | effect on microtubules ([1]; 5–10 μM, 24 h, A549) | cytotoxicity, in words [6] | selectivity towards tumor cells ([6]; pair A549/VA13) | reduction of cytotoxicity relative to 2c ([6]; ring B enlarged to seven-membered) | activity relative to 2k ([6]; conformational restriction of 2k)
1 | – | COc1ccc(/C=C\c2cc(OC)c(OC)c(OC)c2)cc1O [CA-4, combretastatin A-4, reference compound] | full depolymerization of MTs | – | – | – | – | – | – | – | – | – | – | – | –
2 | 84 to 85 °C | Cc1nc2c(c(N(C)c3ccccc3)n1)CCCC2 [Compound 2a, N,2-Dimethyl-N-phenyl-5,6,7,8-tetrahydroquinazolin-4-amine] | – | 1840 ± 810 nM | 2200 ± 260 nM | 1400 ± 180 nM | 1750 ± 230 nM | 2–3 orders of magnitude | intact MTs; also recorded: no effect on the microtubule cytoskeleton | – | – | – | – | – | –
3 | 91 to 92 °C | Cc1ccc(N(C)c2nc(C)nc3c2CCCC3)cc1 [Compound 2b, N,2-Dimethyl-N-(4-methylphenyl)-5,6,7,8-tetrahydroquinazolin-4-amine] | – | 97 ± 7 nM | 110 ± 8 nM | 62 ± 8 nM | 89 ± 3 nM | – | – | depolymerization of MTs | pronounced or complete disruption of microtubules | – | – | – | –
4 | 118 to 119 °C | Cc1nc2c(c(N3CCCc4ccccc43)n1)CCCC2 [Compound 2d, 4-(3,4-Dihydroquinolin-1(2H)-yl)-2-methyl-5,6,7,8-tetrahydroquinazoline] | – | 9100 ± 2200 nM | 12600 nM | 3000 ± 700 nM | 7300 ± 1200 nM | – | – | – | – | – | – | – | –
5 | 184 to 185 °C | Cc1nc2c(c(N3CCCc4ccc([N+](=O)[O-])cc43)n1)CCCC2 [Compound 2f, 2-Methyl-4-(7-nitro-3,4-dihydroquinolin-1(2H)-yl)-5,6,7,8-tetrahydroquinazoline] | – | > 50000 nM | > 50000 nM | > 50000 nM | > 50000 nM | – | – | – | – | inactive | – | – | –
6 | 128 to 129 °C | CN(c1ccccc1)c1nc(N)nc2c1CCCC2 [Compound 2g, N^4-Methyl-N^4-phenyl-5,6,7,8-tetrahydroquinazolinyl-2,4-diamine] | – | 28600 nM | 36400 nM | 26900 nM | 26300 nM | 2–3 orders of magnitude | – | – | – | – | – | – | –
7 | 135 to 136 °C | Cc1ccc(N(C)c2nc(N)nc3c2CCCC3)cc1 [Compound 2h, N^4-Methyl-N^4-(4-methylphenyl)-5,6,7,8-tetrahydroquinazolinyl-2,4-diamine] | – | 210 ± 15 nM | 310 ± 23 nM | 150 ± 14 nM | 170 ± 18 nM | – | – | – | – | – | – | – | –
8 | 92 to 93 °C | COc1ccc(N(C)c2nc(C)nc3c2CCCCC3)cc1 [Compound 2k, N-(4-Methoxyphenyl)-N,2-dimethyl-6,7,8,9-tetrahydro-5H-cyclohepta[d]pyrimidin-4-amine] | – | 53 ± 7 nM | 79 ± 10 nM | 22 ± 6 nM | 39 ± 6 nM | – | – | – | – | – | no selectivity | more than 10 times | –
9 | 122 to 123 °C | COc1ccc2c(c1)CCCN2c1nc(C)nc2c1CCCCC2 [Compound 2l, 4-(6-Methoxy-3,4-dihydroquinolin-1(2H)-yl)-2-methyl-6,7,8,9-tetrahydro-5H-cyclohepta[d]pyrimidine] | – | 360 ± 70 nM | 790 ± 19 nM | 260 ± 80 nM | 450 ± 100 nM | – | – | – | – | – | – | – | seven to twelve times less active
10 | – | COc1ccc(N(C)c2nc3c(c(N(C)c4ccc(OC)cc4)n2)CCCC3)cc1 [Compound 2n, N,N′-bis(4-methoxyphenyl)-N,N′-dimethyl-5,6,7,8-tetrahydroquinazolin-2,4-diamine] | – | 2500 ± 140 nM | 3270 ± 290 nM | 2290 ± 160 nM | 1720 ± 68 nM | – | – | – | – | moderately cytotoxic | – | – | –
11 | – | COc1ccc2c(c1)CCCN2c1nc(O)nc2c1CCCC2 [Compound 2o, 2-Hydroxy-4-(6-methoxy-3,4-dihydroquinolin-1(2H)-yl)-5,6,7,8-tetrahydroquinazoline] | – | > 50000 nM | > 50000 nM | > 50000 nM | > 50000 nM | – | – | – | – | complete loss of cytotoxicity | – | – | –
12 | – | COc1ccc2c(c1)CCCN2c1nc2c(c(N3CCCc4cc(OC)ccc43)n1)CCCC2 [Compound 2p, 2,4-Bis(6-methoxy-3,4-dihydroquinolin-1(2H)-yl)-5,6,7,8-tetrahydroquinazoline] | – | 660 ± 150 nM | 640 ± 76 nM | 290 ± 74 nM | 510 ± 33 nM | – | – | – | – | moderately cytotoxic | – | – | –
13 | – | COc1ccc2c(c1)CCCN2c1nc(OC(C)C)nc2c1CCCC2 [Compound 2q, 2-Isopropoxy-4-(6-methoxy-3,4-dihydroquinolin-1(2H)-yl)-5,6,7,8-tetrahydroquinazoline] | – | 310 ± 22 nM | 360 ± 34 nM | 160 ± 20 nM | 250 ± 11 nM | – | – | – | – | largely restored | – | – | –
14 | – | COc1ccc2c(c1)CCCN2c1nc2c(c(OC(C)C)n1)CCCC2 [Compound 2r, 4-Isopropoxy-2-(6-methoxy-3,4-dihydroquinolin-1(2H)-yl)-5,6,7,8-tetrahydroquinazoline] | – | 24200 nM | 23800 nM | 118000 nM | 53500 nM | – | – | – | – | moderately cytotoxic | – | – | –
